Test results from patent publication US6258839A, “Isolation of naturally occuring isoflavanone and some clinical uses thereof” (priority 1997, dated 2001).

Experiments:
HIV-11118 = experiment: in vitro anti-HIV activity, HIV-11118; format: cell-based, HIV-1
HIV-1 AZT^res = experiment: in vitro anti-HIV activity, AZT resistant HIV-1; format: cell-based; conditions: Human immunodeficiency virus 1
SIV MAC = experiment: in vitro antiviral activity, SIV; format: cell-based
[1] = system: HIV in fresh human peripheral blood mononuclear cells (PBMC's); experiment: in vitro anti-HIV activity in fresh human PBMC's; format: cell-based, HIV-1; conditions: Human immunodeficiency virus 1, PBMC
CALO/V901, P225S = experiment: microbe, parasite or virus in culture; format: cell-based, HIV-1; conditions: Human immunodeficiency virus 1
DPS/Y181C = experiment: activity against HIV mutants: DPS/Y181C; format: cell-based, HIV-1
HEPT/P236L = experiment: activity against HIV mutants: HEPT/P236L; format: cell-based, HIV-1; conditions: Human immunodeficiency virus 1
TiBO/A98G, V1081 = experiment: activity against HIV mutants: TiBO/A98G, V1081; format: cell-based, HIV-1; conditions: Human immunodeficiency virus 1
HIV-2 = experiment: activity against HIV-2; format: cell-based
integrase = integrase (Human immunodeficiency virus type 1 group M subtype B, UniProt P04585); experiment: integrase enzymatic activity; format: biochemical, HIV
[2] = system: HIV-1 attachment to cells (CEM-SS, PBMC's); experiment: virus attachment assay, p24 based; format: cell-based
HIV [3] = experiment: combination studies with AZT; format: cell-based
solubility studies = format: physicochemical
Protocol: It is very soluble in propylene glycol (PG), polyethylene glycol (PEG) 400 and soybean oil. These solvents may be useful in formulating cosolvents suitable for pharmaceutical applications. The ethanolic solutions has UV absorptions in the 290-300 nm range, useful for analytical work. Aqueous solutions for analytical work were prepared in HPCD and diluted with water to the required concentrations. The stock solutions were stable when incubated for 48 hours at 37° C. and when stored at room temperature.

BSA = BSA (Bos taurus, UniProt P02769); experiment: interaction with BSA by fluorescence spectroscopy; format: binding, bovine; conditions: PMZ-1 in the μM range
hollow fibre studies = format: in vivo; conditions: intraperitoneally; preliminary
breast cancer = experiment: NCI 60 cell line panel, breast cancer; format: cell-based
[4] = system: mutant viruses containing reverse transcriptase domain at codons 181, 139 and 100; experiment: activity against three other mutant viruses; format: cell-based, HIV
[5] = U1/TNF differential latent infection, XTT and p24; conditions: human, u1 cells
U1 latent infection = experiment: U1/TNF differential latent infection, XTT and p24
CEM-SS = experiment: growth inhibition of uninfected host cells in anti-HIV screen; conditions: Homo sapiens
HIV [6] = experiment: HIV activity of co-isolated compounds; format: cell-based
[7] = system: HIV-1 infected cells (p24 production); experiment: extended time course assay, p24 and XTT; conditions: addition to culture after infection

Sequence of BSA (P02769 25-607): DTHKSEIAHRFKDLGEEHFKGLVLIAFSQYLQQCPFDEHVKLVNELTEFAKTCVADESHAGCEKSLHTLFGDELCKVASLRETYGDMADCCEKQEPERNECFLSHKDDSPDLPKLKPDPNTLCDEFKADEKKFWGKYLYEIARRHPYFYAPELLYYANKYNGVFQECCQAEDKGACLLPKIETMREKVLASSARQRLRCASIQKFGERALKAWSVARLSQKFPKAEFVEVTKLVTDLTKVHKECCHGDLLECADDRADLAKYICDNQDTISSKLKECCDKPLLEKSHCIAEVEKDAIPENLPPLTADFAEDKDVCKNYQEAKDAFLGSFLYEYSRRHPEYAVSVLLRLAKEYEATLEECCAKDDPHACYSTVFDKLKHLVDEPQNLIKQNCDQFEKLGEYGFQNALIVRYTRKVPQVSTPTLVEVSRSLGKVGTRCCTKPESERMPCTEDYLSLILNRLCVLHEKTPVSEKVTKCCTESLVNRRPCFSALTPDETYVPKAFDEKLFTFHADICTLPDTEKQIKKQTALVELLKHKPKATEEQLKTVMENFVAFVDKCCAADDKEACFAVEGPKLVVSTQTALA

`COc1c(O)cc(C2COc3cc(O)cc(O)c3C2=O)cc1CC=C(C)C` (racemic) [PMZ-1] gave an EC50 (HIV-11118; Human immunodeficiency virus 1, HIV-1IIIB, NCI AIDS anti-viral screen) of 0.2 µM, an EC50 (HIV-11118; Human immunodeficiency virus 1, HIV-11118) of 0.058 µM and an EC50 (HIV-1 AZT^res) of 0.16 µM. The “activity against SIV” value (SIV MAC) was “weak activity”, the EC50 ([1]; PMBC's) was 0.6 µM and the EC50 ([1]; fresh human PBMC's) was under 1 µM. For the same compound, the EC50 (CALO/V901, P225S) was 0.1 µM, the EC50 (DPS/Y181C; Human immunodeficiency virus 1, DPS/Y181C) was 1.39 µM and the EC50 (DPS/Y181C; Human immunodeficiency virus 1, mutant Y181) was about 1 µM. For the same compound, the EC50 (HEPT/P236L) was over 5 µM, the EC50 (TiBO/A98G, V1081) was over 5 µM and the “activity against HIV-2” value (HIV-2) was “weak activity”. For the same compound, the IC50 (integrase) was 40 µM, the “effect on attachment of virons to cells” value [2] was “no effect” and the “HIV-1 Attachment to CEM-SS cells” value ([2]; at 100 μM, CEM-SS cells) was “No inhibition”. For the same compound, the “anti-viral combination effect with AZT” value (HIV [3]) was “anti-viral synergistic effects”, the “solubility in 40% HPCD” value (solubility studies; 40% hydroxypropyl beta-cyclodextrin) was “soluble” and the solubility in ethanol (solubility studies; ethanol) was over 1000 µg/mL. For the same compound, the “solubility in PG, PEG 400 and soybean oil” value (solubility studies; propylene glycol, polyethylene glycol 400, soybean oil) was “very soluble”, the solubility in water (solubility studies; water) was “poorly soluble” and the “quenching of fluorescence of BSA” value (BSA) was “concentration dependent quenching”. For the same compound, the “activity in hollow fibre studies” value (hollow fibre studies) was “active”, the “activity against breast cancer” value (breast cancer) was “good activity” and the “activity against three other mutant viruses” value [4] was “some activity”. The MNTC [5] was 1000 nM, the “U1/TNF differential latent infection XTT: toxic concentration” value (U1 latent infection; XTT) was at most 3.16 µM and the “U1/TNF differential latent infection p24 production” value (U1 latent infection; p24) was “no inhibition of p24 production”. It also gave an IC50 (CEM-SS) of 38 µM, an IC50 (CEM-SS; cell growth, HIV-1 AZT^res test) of 42 µM and an IC50 (CEM-SS; cell growth, HIV-1 AZT^sen test) of 35 µM. The IC50 (CEM-SS; cell growth, HIV-1 DPS test) was 42 µM, the IC50 (CEM-SS; cell growth, HIV-1 N119 test) was 60 µM and the IC50 (CEM-SS; cell growth, HIV-1RF test) was 20 µM. It also gave an IC50 (CEM-SS; cell growth, HIV-1 ROD test) of 28 µM, an IC50 (CEM-SS; cell growth, HIV-11118 test) of 46 µM and an IC50 (CEM-SS; cell growth, SIV MAC test) of 35 µM.
In the case of `CC(C)=CCc1c(O)cc(O)c2c1OC(c1ccc(O)c(O)c1)CC2=O` (stereo not drawn) [4382-39-1], the HIV activity (HIV [6]) is reported as “devoid of HIV activity”.
For `CC(C)=CCc1cc(C2COc3cc(O)cc(O)c3C2=O)cc(O)c1O` (stereo not drawn) [4382-39-2], the HIV activity (HIV [6]) was “devoid of HIV activity”.
With `Cc1ccnc2c1NC(=O)c1cccnc1N2C1CC1` [nevirapine, reference compound] the “time after infection within which addition is effective” value [7] was at most 8 h.
